Test results published in article PMC10718076, “1,2-Disubstituted bicyclo[2.1.1]hexanes as saturated bioisosteres of ortho-substituted benzene” (Chemical Science, 2023).
Values after ≈ are worked out from the molar mass of the structure shown. Like-named read-outs stand apart in the source and are kept apart here.

How the values were obtained:
[1] = Kinetic solubility in phosphate-buffered saline, pH 7.4; type: physicochemical; conditions: for solubility kinetic at 2 h / solubility at 2 h: 25 °C, pH 7.4, aqueous buffer, kinetic from dmso stock; for solubility at 2 h: PBS solubility
Protocol: Analysis of Aqueous Solubility […]
compound (Ondansetron) were assessed for kinetic solubility in phosphate -buffered saline, pH 7.4.
Phosphate buffered saline, pH 7.4 (Sigma -Aldrich, USA; Cat #P3813) […]
MultiScreen HTS 96 Well Filter Plates (Millipore, Ireland; Cat # MSSLBPC10) […]
Matrix Multichannel Electronic Pipette 2-125 μL, 5-250 μL, 15-1250 μL (Thermo Scientific, USA; […]
Vacuum pump (Millipore, USA; Model # XX5500000)
The measurements were performed using SpectraMax Plus reader in UV -Vis mode. Acquisition and […]
The measurements were performed using SpectraMax Paradigm reader in UV-Vis mode.
Acquisition and analysis of the data were performed using SoftMax Pro v.5.4 (Molecular Devices) […]
Kinetic solubility assay was performed according to the Enamine’s aqueous solubility SOP. Briefly, using a 20 mM stock solution of the compound in 100% DMSO dilutions were prepared to a theoretical concentration of 400 μM in duplicates in phosphate-buffered saline pH 7.4 […]
compound dilutions in PBS were further allowed to equilibrate at 25 °C on a thermostatic shaker for two hours and then filtered through HTS filter plates using a vacuum manifold. The filtrates of test compounds were diluted 2-fold with acetonitrile with 2% DMSO before measuring.
In parallel, compound dilutions in 50% acetonitrile/PBS were prepared to theoretical concentrations […]
calibration curves. Ondansetron was used as reference compound to control proper assay performance. 200 μl of each sample was transferred to 96-well plate and measured in 230-550 nm range with 5 nm step. The effective range of this assay is approximately 2-400 μM and the […]
The concentrations of compounds in PBS filtrate are calculated using a dedicated Microsoft Excel calculation script. Proper absorbance wavelengths for calculations are selected for each compound manually based on absorbance maximums (absolute absorbance unit values for the minimum and maximum concentration points within the 0 – 3 OD range). Each final dataset is visually evaluated by the operator, and goodness of fit (R2) is calculated for each calibration curve. […]
samples were diluted 2-fold with acetonitrile containing internal standard and were analyzed using the HPLC system coupled with a tandem mass spectrometer. The effective range of this assay is […]

physchem = conditions: pH 7.4, LogD, pH 7.4
Protocol: Determination of Distribution Coefficient (LogD, pH 7.4)
coefficient (or LogD) is a logarithm of the ratio of drug concentrations in two immiscible solvents,
typically pH-buffered water and n-octanol. It is a measure of hydrophobic/hydrophilic properties of
a given molecule. The partition of test compounds is determined using a shake-flask method, which
involves mixing of a certain amount of the solute of interest in defined volumes of n-octanol and an
aqueous buffer of choice followed by equilibration of the mixture by incubation with efficient
mixing. Then, the distribution of the compounds in each solvent was controlled using LC-MS/MS.
Phosphate buffered saline, tablet (Sigma-Aldrich, USA; Cat # P4417)
Acetic acid (Enamine, Ukraine)
1.1 mL microtubes in microracks, pipettor tips (Thermo Scientific, USA).
National Scientific MicroTube™ Rack (Thermo Fisher Scientific, USA; Cat # TN094612R)
Gradient HPLC system (Shimadzu, Japan)
Triple quadrapole mass-detector API 3000 with TurboIonSpray Ion Source (AB Sciex, Canada)
MTR22 Multi Mix Rotator (UNICO, USA)
Laboratory Centrifuge, Sigma 4-15C, Qiagen (SIGMA GmbH, Germany)
Water purification system Millipore Milli-Q Gradient A10 (Millipore, France)
All measurements were performed using a Shimadzu Prominence HPLC system including a
vacuum degasser, gradient pumps, a reverse phase column, a column oven and an autosampler.
Mass spectrometric analysis was performed using an API 4000 QTRAP mass spectrometer from
Applied Biosystems/MDS Sciex (AB Sciex) with Turbo V ion source and TurboIonspray
interface. The TurboIonSpray ion source was used in both positive and negative ion modes.
Acquisition and analysis of the data were performed using Analyst 1.6.3 software.
Incubations were carried out in Eppendorf-type polypropylene microtubes in triplicates. A 2.5 μL
aliquot of 20 mM DMSO stock of a test compound was added into the previously mutually
saturated mixture containing 500 μL of PBS (pH 7.4) and 500 μL of octanol. The solution was
allowed to mix in a rotator for 1 hour at 30 rpm. Phase separation was assured by centrifugation for
2 min at 6000 rpm. The octanol phase was diluted 100-fold with 40% acetonitrile, and the aqueous
phase (PBS buffer) was diluted 10-fold with 40% acetonitrile. The samples (both phases) were
analyzed using an HPLC system coupled with a tandem mass spectrometer.
Calculations of the partition ratios were carried out using the equation below.
where: – peak area of the analyte in octanol phase
– peak area of the analyte in PBS buffer
– dilution coefficient for octanol phase dp – dilution coefficient for aqueous phase

in vitro = conditions: both, human
[2] = system: Aspergillus niger (strain VURV-F 822); assay: Antifungal disk diffusion method; type: cell-based
Protocol: Antifungal activity of the synthetic compounds using disk diffusion methods The compounds were tested for plant pathogens Aspergillus niger (strain VURV-F 822), which was received from Culture collection of microorganisms of Crop Research Institute (Prague, Czech […]
The synthetic compounds' antifungal activity was evaluated using a disk diffusion assay for testing filamentous fungi (CLSI M51-A) and broth microdilution antifungal susceptibility testing (EUCAST E.DEF 7.3.1; CLSI M38-A2)
[CLSI M51-A. Method for Antifungal Disk Diffusion Susceptibility Testing of Nondermatophyte Filamentous Fungi; Approved Guideline.CLSI document M51-A. Wayne, PA:
Clinical and Laboratory Standards Institute; 2010. This method is standardized for Altenaria, Aspergillus, Bipolaris, Fusarium, order Mucorales, etc.]
[CLSI M38-A2. 2008. Reference method for broth dilution antifungal susceptibility testing of filamentous fungi, 2nd ed Approved standard M38 -A2 Clinical and Laboratory Standards Institute, […]
Antifungal disk diffusion method
The solutions of fungicides and their analogues were diluted in dimethyl sulfoxide (DMSO) to […]
mg/mL for each test component. Sterile paper disks (ASPECT, Ukraine) were soaked with 10 μl of a solution of the appropriate fungicide from the highest concentration to the lowest.
The fungal strains were cultured on Petri dishes with Saburo dextrose agar (Condalab, Spain) and incubated at 25 °C for 5 days. Sterile Dulbecco's phosphate -buffered saline (DPBS) with 0,1 % Tween 20 was used to cover colonies of fungus for obtained conidia l suspension. Suspension of conidia was adjusted to inoculums 2×10^5 conidia/mL by sterile DPBS.
For antifungal disk diffusion test we used square Petri dishes (FALCON A Corning Brand, USA). The conidial suspension (0.5 mL) was added to Petri dishes with Saburo dextrose agar. The suspension was evenly distributed over the surface of the nutrient medium with a glass spatula.
After the surface of the inoculated medium was dry, the disks with different concentrations of testing compounds were added to the Petri dishes. Each compound was tested in triplicate at different concentrations. Growth control was a disk with 10 μl of DMSO, which was used for test […]
Petri dishes incubated at 25 °C for 72 h. The test compounds at known concentrati on into contact with an inoculated medium then exert a growth-inhibiting effect then a clear zone (the zone of […]
inhibition) appears around the test product. The diameter of a clear zone around the well is […]
If the fungal strain is susceptible to the antifungal agent, then a zone of inhibition appears on the agar plate. If it is resistant to the test compound, then no zone is evident. The size of the zone of inhibition is usually related to the level of antifungal activity present in the compound – a larger […]
The growth rate of all strains for each concentration of test compounds was determined visually and compared with the growth of control.
Broth microdilution antifungal susceptibility testing
A 96-well CELLSTAR plate (sterile, flat-bottomed, polystyrene, transparent) was used to determine MIC by broth microdilution method. Also, dabble straight RPMI-1640 medium with 2% glucose (2x RPMI 2%G) was used for this method. Spore suspension for plate inoculation was prepared according to the method described above for the disc diffusion method.
The each well in the plate contained 49 μl of medium (2x RPMI 2%G), 50 μl of inoculum (prepared in DPBS) and 1 μl of the stock solution of the test substance. Positive control wells contained 50 μl medium and 50 μl inoculum, and sterile control wells contained 50 μl medium and […]
To determine the MIC by the microdilution method, a series of stock solutions of fungicides and their analogues in DMSO with the following concentrations were prepared: 3.2 mg/mL, 1.6 mg/mL, […]
1 μl of the stock solutions of the test substances were added to each well to obtain the following […]
Immediately after adding all the components to the plates, the optical density was measured at […]

[3] = Table S5, injection 1, octanol/PBS pH 7.4
[4] = Table S5, injection 2, octanol/PBS pH 7.4
[5] = Table S5, injection 3, octanol/PBS pH 7.4
[6] = microsomes, pH 7.4, % Remaining, Mean of 2

| Structure (SMILES) | solubility kinetic at 2 h [1] | solubility at 2 h ([1]; pH 7.4, Incubation 1) | solubility at 2 h ([1]; pH 7.4, Incubation 2) | solubility at 2 h ([1]; pH 7.4, Mean) | logD at 1 h (physchem) | D [3] | D [4] | D [5] | further results |
| --- | --- | --- | --- | --- | --- | --- | --- | --- | --- |
| Cc1nc2c([nH]1)-c1ccccc1N(C(=O)c1ccc(NC(=O)c3ccccc3-c3ccccc3)cc1)CC2 [Conivaptan, conivaptan] | 5 µM (≈ 2.49 µg/mL) | 4 µM (≈ 1.99 µg/mL) | 7 µM (≈ 3.49 µg/mL) | 5 µM (≈ 2.49 µg/mL) | 4.3 | 1.98E+04 | 2.11E+04 | 1.99E+04 | microsomal CLint at 2 μM (in vitro; microsomes, pH 7.4): 31 µL/min/mg; remaining at 40 min, 2 µM (in vitro; microsomes, pH 7.4, % Remaining without cofactor, Mean of 2): 101%; remaining at 25 min, 2 µM (in vitro; [6]): 67%; remaining at 40 min, 2 µM (in vitro; [6]): 60%; half-life at 2 µM (in vitro; microsomes, pH 7.4, t1/2): 54.4 min; k el at 2 µM (in vitro; pH 7.4, kel): 0.000217 s⁻¹ |
| Cn1cc(C(=O)Nc2ccccc2-c2cc(F)c(F)c(F)c2)c(C(F)F)n1 [Fluxapyroxad, fluxapyroxad] | 25 µM (≈ 9.53 µg/mL) |  |  |  |  | 3.37E+03 | 2.99E+03 | 3.24E+03 | zone of inhibition at 4 µg/mL ([2]; Concentration 0.004 mg/mL, 0 = absence of antifungal activity, Boscalid, Fluxapyroxad, Bixafen marked st, read-out: Diameter of inhibition zone): 8 ± 2 mm; zone of inhibition at 8 µg/mL ([2]; Concentration 0.008 mg/mL, 0 = absence of antifungal activity, read-out: Diameter of inhibition zone): 11.8 ± 1.25 mm; zone of inhibition at 16 µg/mL ([2]; Concentration 0.016 mg/mL, 0 = absence of antifungal activity, read-out: Diameter of inhibition zone): 14.5 ± 0.5 mm; zone of inhibition at 30 µg/mL ([2]; Concentration 0.03 mg/mL, 0 = absence of antifungal activity, (±)-29 marked st, read-out: Diameter of inhibition zone): 18.2 ± 0.4 mm; zone of inhibition at 60 µg/mL ([2]; Concentration 0.06 mg/mL, 0 = absence of antifungal activity, Fluxapyroxad, Bixafen, (±)-29 marked st, read-out: Diameter of inhibition zone): 22.2 ± 1.25 mm; zone of inhibition at 120 µg/mL ([2]; Concentration 0.12 mg/mL, (±)-28 marked st (static growth), read-out: Diameter of inhibition zone): 25.2 ± 1.5 mm; zone of inhibition at 250 µg/mL ([2]; Concentration 0.25 mg/mL, (±)-28 marked st (static growth, secondary growth of mycelium), read-out: Diameter of inhibition zone): 30 ± 0.5 mm; zone of inhibition at 500 µg/mL ([2]; Concentration 0.5 mg/mL, 10 μl per disk, read-out: Diameter of inhibition zone): 34.5 ± 0.75 mm; zone of inhibition at 1000 µg/mL ([2]; Concentration 1 mg/mL, 10 μl per disk, read-out: Diameter of inhibition zone): 39.2 ± 2.25 mm; zone of inhibition at 2000 µg/mL ([2]; Concentration 2 mg/mL, 10 μl per disk, read-out: Diameter of inhibition zone): 40.8 ± 1.6 mm; MIC ([2]; disk diffusion, small zones of inhibition with secondary mycelial growth, read-out: minimum inhibitory concentration): 4 µg/mL (≈ 10.5 µM) |
| O=C(NC1CCN(CCCCC2(C(=O)NCC(F)(F)F)c3ccccc3-c3ccccc32)CC1)c1ccccc1-c1ccc(C(F)(F)F)cc1 [Lomitapide, lomitapide] | 3 µM (≈ 2.08 µg/mL) |  |  |  |  | 5.98E+08 | 3.42E+05 | 6.79E+04 |  |
| COC(=O)Nc1nc2ccc(C(=O)c3ccccc3)cc2[nH]1 [Mebendazole] |  |  |  |  | 2.82 |  |  |  |  |
| Cc1nccn1CC1CCc2c(c3ccccc3n2C)C1=O (stereo not drawn) [Ondansetron, reference compound] |  | 126 µM (≈ 37 µg/mL) | 126 µM (≈ 37 µg/mL) | 126 µM (≈ 37 µg/mL) |  |  |  |  | PBS solubility, pH 7.4, Incubation 1 ([1]; Table S1, 1st batch): 121 µM; PBS solubility, pH 7.4, Incubation 2 ([1]; Table S1, 1st batch): 119 µM |
